Measurements taken from patent US10092566B2, “Composition for controlling a gut immunity and use thereof” (SEOUL NATIONAL UNIVERSITY R&DB FOUNDATION, priority 2013, dated 2018).

System: DUOX
Assay: In vivo ROS detection in gut epithelia (HOCl-specific R19S staining, ratio of ROS-positive guts)
Set-up: species or system Drosophila
From the text: R19S, a recently developed HOCl-specific rhodamine-based dye, was used in this experiment (Chen et al., Chem Commun (Camb) 47, pp. 4373-4375, 2011). R19S was purchased from Futurechem (Seoul, South Korea). […]
Furthermore, to measure the basal level of ROS in germ-free animals, Drosophila monoassociated with each bacterium (C. intestini, A. pomorum, L. plantarum, G. morbifer, G. morbifer-carA::Tn5, L. brevis, or L. brevisΔcarA) were experimented with as disclosed above. A 5% sucrose solution containing 10 μM of R19S was orally administered to the monoassociated Drosophila (13 days old) for 90 minutes.
Following the R19S ingestion, the midguts were dissected and fixed with 4% formaldehyde. The level of HOCl (ROS level) was visualized by LSM700 confocal microscopy (Carl Zeiss).
For all of the experiments, R19S-positive guts in each animal group (n=approx. 20) were measured by each independent experiment, and data was indicated by at least three repeated and independent experiments. The number of R19S-positive guts in regard to the total numbers of gut samples was indicated as the ratio of ROS-positive guts.

Compound | ROS-inducing ability / DUOX activation (nucleobases and pyrimidine analogs, 20 nM each, ingestion for 15 minutes) | DUOX-dependent ROS after coingestion of uracil with N-acetylcysteine (uracil 20 nM, 1.5 hours, plus N-acetylcysteine)
O=c1[nH]cc(F)c(=O)[nH]1 [5-fluorouracil, reference compound] | only uracil is capable of activating DUOX | –
CC(=O)N[C@@H](CS)C(=O)O [N-acetylcysteine, reference compound] | – | could not be detected
